The test relates to 885724-159-R-J1-PDC KRAS PDC multicell spheroid viability. Description: Anticancer human tumor 885724-159-R-J1-PDC patient-derived pancreatic adenocarcinoma cell line growth inhibition [KRAS2]. The following applies: for viability, T/C: stronger effect = lower value. The source says:
Multicellular complex tumor spheroid response to RAS pathway inhibitors in combination with a targeted agents in patient-derived cell lines with oncogenic KRAS variants from multiple cancer types
A high-throughput screen of multi-cell type tumor spheroids was designed to identify active combinations of targeted small molecules and KRAS pathway inhibitors. Complex spheroids include a stromal component modeled by human endothelial cells (HUVEC) and fibroblasts modeled by human mesenchymal stem cells (MSCs). The concentration ranges selected for each drug and investigational agent were based upon clinically achievable concentrations if the clinical Cmax of the agent was known.
Compounds. The drugs and investigational agents: BI-3406 (NSC825286), BAY-293 (NSC824723), batoprotafib (TNO155; NSC825523), sotorasib (AMG 510; NSC818433), MRTX1257 (NSC819558), elimusertib (BAY 1895344; NSC800525), molibresib (GSK525762; NSC774829), temuterkib (LY3214996; NSC803410), venetoclax (NSC766270), alisertib (NSC759677), olaparib (NSC753686), talazoparib (NSC767125), erdafitinib (NSC781556), ipatasertib (NSC767898), cabozantinib (NSC761068), nintedanib (NSC756659), abemaciclib (NSC768073), docetaxel (NSC628503), trametinib (NSC758246), and sapanisertib (NSC764658) were obtained from the National Cancer Institute (NCI) Developmental Therapeutics Program Chemical Repository. The FDA-approved anticancer drug set is available from the Developmental Therapeutics Program. […] The stock solutions were prepared in dimethyl sulfoxide (DMSO, Sigma-Aldrich, St. Louis, MO, cat. D2650) at 800-fold the tested concentration and stored at -70 degrees C prior to their use. All drugs and investigational agents were tested over a range starting from a high concentration at or near the clinical Cmax and decreasing in half-log increments. If the clinical Cmax for an agent had not been determined, the highest concentration tested was 10 microM.
Cell Culture. All cells were maintained in an incubator at 37 degrees C and 5% CO2 with 95% humidity. The PDC lines were cultured according to standard operating procedures established by the NCI PDMR (https://pdmr.cancer.gov/sops/default.htm). Briefly, all PDCs were thawed and cultured in Matrigel-coated flasks prepared with a working solution of 1X Ham's F-12 nutrient mix, without supplementation (Invitrogen, Waltham, MA, cat. 11765054), 100 U/mL penicillin-streptomycin (Invitrogen, cat. 15140122), and 2.5% Matrigel (Corning Inc., Corning, NY, cat. 354248) for the first three passages. All PDCs were cultured in complete DMEM/F-12 media containing advanced DMEM/F-12 (Invitrogen, cat. 12634028), 4.9% defined fetal bovine serum, heat inactivated (HyClone Laboratories Inc., Logan, UT, cat. SH30070.03HI), 389 ng/mL hydrocortisone (Sigma-Aldrich, cat. H4001), 9.7 ng/mL human EGF recombinant protein (Invitrogen, cat. PHG0313), 23.4 microg/mL adenine (Sigma-Aldrich, cat. A2786), 97.3 U/mL penicillin-streptomycin (Invitrogen, cat. 15140122), 1.9 mM L-glutamine (Invitrogen, cat. 25030081), and 9.7 microM Y-27632 dihydrochloride (Tocris Bioscience, Bristol, United Kingdom, cat. 1254). The PDCs were cultured in complete DMEM/F12 media without 9.7 microM Y-27632 dihydrochloride for at least two passages prior to the screen. The established cell line HOP-62 was cultured in RPMI 1640 medium, HEPES (Invitrogen, cat. 22400105) with 10% defined fetal bovine serum (HyClone Laboratories Inc., cat. SH30070.03) and 2 mM L-glutamine (Invitrogen, cat. 25030081). The pooled donor HUVEC were cultured in endothelial cell growth medium 2 (PromoCell, Heidelberg, Germany, cat. C-22011) and the hMSC were cultured in mesenchymal stem cell growth medium 2 (PromoCell, cat. C-28009). For all experiments, HUVEC and hMSC were used at passages </=5, while the malignant cell lines were used at passages </=15. […]

Where [1] appears, read: compound alone, run of 08/19/2021.
[2] abbreviates: compound alone, run of 08/26/2021.
Where [3] appears, read: compound alone, run of 09/02/2021.

Values joined by “and” are separate entries in the source; they are usually repeats but may differ in a detail not shown here. Equal entries are not always repeated. Bounds are passed on as bounds.
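Further: spheroids exposed to agents for 7 days before readout.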

As a reminder, the viability, T/C is the ratio of treated to control. Usually IC50 stands for the concentration that gives 50% inhibition. For the compound `C=CC(=O)N1CCN(c2nc(OCC3CCCN3C)nc3c2CCN(c2cccc4cccc(C)c24)C3)CC1CC#N` (configuration not stated), the viability, T/C reads like this: (compound 0.0316 µM) 103% [middle of 17 runs]; (compound 0.316 µM) 94.9% [middle of 17 runs]. Further, the IC50 by setting is: under setting [1], > 3.16 µM and 2.89 µM and 2.93 µM; under setting [2], > 3.16 µM and 3.06 µM; under setting [3], > 3.16 µM and 2.96 µM and 2.89 µM.

For the compound `CC(=O)Nc1cccc(-n2c(=O)n(C3CC3)c(=O)c3c(Nc4ccc(I)cc4F)n(C)c(=O)c(C)c32)c1`, the viability, T/C (compound 0.0001 µM) was 89.6% [middle of 5 runs]; the viability, T/C (compound 0.000316 µM) is 68.2% [middle of 5 runs]; the viability, T/C (compound 0.001 µM) is 49.6% [middle of 5 runs]; the viability, T/C (compound 0.00316 µM) was 36.5% [middle of 5 runs]; the viability, T/C (compound 0.01 µM) is 25.7% [middle of 5 runs]; the viability, T/C (compound 0.0316 µM) was 18.6% [middle of 5 runs]. For the same compound, the IC50 (curve of compound) is 0.966 nM [middle of 5 runs].

With `CC(=O)OC12COC1CC(O)C1(C)C(=O)C(O)C3=C(C)C(OC(=O)C(O)C(NC(=O)OC(C)(C)C)c4ccccc4)CC(O)(C(OC(=O)c4ccccc4)C21)C3(C)C` (configuration not stated), the viability, T/C (compound 0.01 µM) is 88.4% [middle of 5 runs]; the viability, T/C (compound 0.0316 µM) is 93.2% [middle of 5 runs]; the viability, T/C (compound 0.1 µM) was 102% [middle of 5 runs]; the viability, T/C (compound 1 µM) is 112% [middle of 5 runs]. Also, for the setting “curve of compound”, the IC50 was > 3.16 µM.

With `CC(C)n1nc(-c2ccc3oc(N)nc3c2)c2c(N)ncnc21`, the viability, T/C by setting is: (compound 0.000316 µM) 95.6% [middle of 5 runs]; (compound 0.001 µM) 74.4% [middle of 5 runs]; (compound 0.00316 µM) 65.9% [middle of 5 runs]; (compound 0.01 µM) 61.9% [middle of 5 runs]; (compound 0.0316 µM) 51% [middle of 5 runs]; (compound 0.1 µM) 46.5% [middle of 5 runs].

On to `CC1(C)CCC(CN2CCN(c3ccc(C(=O)NS(=O)(=O)c4ccc(NCC5CCOCC5)c([N+](=O)[O-])c4)c(Oc4cnc5[nH]ccc5c4)c3)CC2)=C(c2ccc(Cl)cc2)C1`, for which the viability, T/C was 100% [middle of 5 runs] (compound 0.0316 µM), 103% [middle of 5 runs] (compound 0.1 µM), 100% [middle of 5 runs] (compound 0.316 µM) and 97.1% [middle of 5 runs] (compound 1 µM). Moreover, the IC50 (curve of compound) was 9.05 µM [middle of 5 runs].

Consider `CC1COCCN1c1cc(-c2ccnn2C)c2ccnc(-c3ccn[nH]3)c2n1` (configuration not stated), for which the viability, T/C (compound 0.01 µM) is 107% [middle of 5 runs]; the viability, T/C (compound 0.0316 µM) is 90.6% [middle of 5 runs]; the viability, T/C (compound 0.1 µM) was 69.9% [middle of 5 runs]; the viability, T/C (compound 0.316 µM) is 62.3% [middle of 5 runs]; the viability, T/C (compound 1 µM) is 56.6% [middle of 5 runs]; the viability, T/C (compound 3.16 µM) was 58.2% [middle of 5 runs]. In addition, the IC50 (curve of compound) was > 3.16 µM.

As for `CC1OCC2(CCN(c3cnc(Sc4ccnc(N)c4Cl)c(N)n3)CC2)C1N` (configuration not stated), the viability, T/C runs as follows: (compound 0.0316 µM) 99.7% and 101% and 102%; (compound 0.1 µM) 92.4% [middle of 19 runs]; (compound 3.16 µM) 71.4% [middle of 20 runs]. Moreover, the 50% inhibitory concentration (IC50) is, setting by setting: under setting [1], > 10 µM; under setting [2], > 10 µM; under setting [3], > 10 µM; (curve of compound) > 10 µM.

As to `CCN1CCN(Cc2ccc(Nc3ncc(F)c(-c4cc(F)c5nc(C)n(C(C)C)c5c4)n3)nc2)CC1`, the viability, T/C by setting is: (compound 0.00316 µM) 108% (2×) and 101% and 103% (2×); (compound 0.01 µM) 100% [middle of 5 runs]; (compound 0.0316 µM) 89.9% [middle of 5 runs]; (compound 0.1 µM) 88.7% [middle of 5 runs]; (compound 0.316 µM) 92.5% [middle of 5 runs]; (compound 1 µM) 94% [middle of 5 runs]. Besides, where the note is “curve of compound”, the IC50 was > 1 µM.

For `CCNC(=O)CC1N=C(c2ccc(Cl)cc2)c2cc(OC)ccc2-n2c(C)nnc21` (configuration not stated), the viability, T/C runs as follows: (compound 0.0316 µM) 112% [middle of 5 runs]; (compound 0.1 µM) 102% [middle of 5 runs]; (compound 0.316 µM) 78.4% [middle of 5 runs]; (compound 1 µM) 66.7% [middle of 5 runs]; (compound 3.16 µM) 59.7% [middle of 5 runs]; (compound 10 µM) 51.8% [middle of 5 runs]. The IC50 (curve of compound) is > 10 µM and 8.28 µM.

With `CN(C)C/C=C/C(=O)Nc1cc2c(Nc3ccc(F)c(Cl)c3)ncnc2cc1O[C@H]1CCOC1`, the viability, T/C was 107% [middle of 5 runs] (compound 0.000316 µM); 104% [middle of 5 runs] (compound 0.001 µM); 95.3% [middle of 5 runs] (compound 0.01 µM); 81.5% [middle of 5 runs] (compound 0.0316 µM); 77.5% [middle of 5 runs] (compound 0.1 µM). Under “curve of compound”, the IC50 is > 0.1 µM.

In the case of `COc1cc(Nc2ncc3c(n2)-c2ccc(Cl)cc2C(c2c(F)cccc2OC)=NC3)ccc1C(=O)O`, the viability, T/C was 93.8% [middle of 5 runs] (compound 0.0316 µM); 89.1% [middle of 5 runs] (compound 0.1 µM); 88.7% [middle of 5 runs] (compound 0.316 µM); 90% [middle of 5 runs] (compound 1 µM); 96.2% [middle of 5 runs] (compound 3.16 µM); 98.4% [middle of 5 runs] (compound 10 µM). In addition, for the setting “curve of compound”, the IC50 is > 10 µM.

`COc1cc(OC)cc(N(CCNC(C)C)c2ccc3ncc(-c4cnn(C)c4)nc3c2)c1`: the viability, T/C runs as follows: (compound 0.0316 µM) 103% [middle of 5 runs]; (compound 0.1 µM) 104% [middle of 5 runs]; (compound 0.316 µM) 109% [middle of 5 runs]; (compound 1 µM) 121% [middle of 5 runs]; (compound 3.16 µM) 142% [middle of 5 runs]; (compound 10 µM) 16.8% [middle of 5 runs]. The IC50 (curve of compound) was 6.96 µM [middle of 5 runs].

With `Cn1nccc1Nc1nccc(-c2cc3c(s2)C(C)(C)N(CCN2CCOCC2)C3=O)n1`, the viability, T/C runs as follows: (compound 0.0316 µM) 99.9% and 99.7%; (compound 0.1 µM) 86.3% and 84.2%; (compound 0.316 µM) 59.1% and 65.2%; (compound 1 µM) 45.5% and 45.8%; (compound 3.16 µM) 35.7% and 37.9%; (compound 10 µM) 31.1% and 35.9%. Under “curve of compound”, the IC50 was 0.665 µM and 0.799 µM.

Take `Cn1ncnc1[C@H]1c2n[nH]c(=O)c3cc(F)cc(c23)N[C@@H]1c1ccc(F)cc1`: the viability, T/C was 102% [middle of 5 runs] (compound 0.000316 µM); 102% [middle of 5 runs] (compound 0.001 µM); 97.3% [middle of 5 runs] (compound 0.00316 µM); 98.2% [middle of 5 runs] (compound 0.01 µM); 96.2% [middle of 5 runs] (compound 0.0316 µM); 91% [middle of 5 runs] (compound 0.1 µM). For the same compound, where the note is “curve of compound”, the IC50 is > 0.1 µM.

Consider `O=C(c1cc(Cc2n[nH]c(=O)c3ccccc23)ccc1F)N1CCN(C(=O)C2CC2)CC1`, for which the viability, T/C runs as follows: (compound 0.0316 µM) 104% [middle of 5 runs]; (compound 0.1 µM) 106% [middle of 5 runs]; (compound 0.316 µM) 105% [middle of 5 runs]; (compound 1 µM) 106% [middle of 5 runs]; (compound 3.16 µM) 101% [middle of 5 runs]; (compound 10 µM) 82.5% [middle of 5 runs]. Also, where the note is “curve of compound”, the IC50 is > 10 µM.

These data come from PubChem BioAssay AID1963861 (Molecular Pharmacology Branch, DTP, NCI, 2024).
